The DC50 is the midpoint of the concentration-degradation curve. What is called Dmax is the largest share of the target that was removed.

In patent publication US20260077051A1, “COMPOUNDS FOR THE DEGRADATION OF EGFR KINASE” (BeOne Medicines I GmbH, priority 2023, published 2026) one finds DC50 and Dmax data, which are given here for five compounds.

In assay [1] the target is T1, EGFR L858R (BaF3-L858R cells) (Homo sapiens, UniProt P00533, L858R).
T1 construct: host or cells: BaF3
The experiment in a line: EGFR degradation in BaF3-L858R cells (HTRF assay). In kind it is cell-based. The note with it: 16 h treatment; for DC50: IC50(DC50) of EGFR degradation; for Dmax: maximum percentage of inhibition (degradation). Here is the method:
BaF3-L858R (abbv. L858R) cell were purchased from Kangyuan Bochuang Biotechnology (Beijing) Co., Ltd.
(§1) H1975-#8 and BaF3-L858R cells are treated with compounds diluted in 0.1% DMSO cell culture medium on day 2, incubate for 16 h, 37° C., 5% CO2. the final concentration of compounds in all assay is start with 10 uM, 5-fold dilution, total 8 doses were included.
(§2) After 16 h treatment, for H1975-#8 cells, add 100 ul HTRF 1× lysis buffer to each well; for BaF3-L858R cells, add 20 μl 4× lysis buffer to each well; seal the plate and incubate 1 hour at room temperature on a plate shaker; Once the cells are lysed, 16 μL of cell lysate are transferred to a PE 384-well HTRF detection plate; 4 μL of pre-mixed HTRF antibodies are added to each well; Cover the plate with a plate sealer, spin 1000 rpm for 1 min, Incubate overnight at room temperature; Read on BMG PheraStar with HTRF protocol (337 nm-665 nm-620 nm).
(§3) The inhibition (degradation) percentage of the compound was calculated by the following equation:
(§4) High control=Cell group with added DMSO and without compound, indicating microplate readings without EGFR degradation;
(§5) Dmax is the maximum percentage of inhibition (degradation).
(§6) The IC50(DC50) value of a compound can be obtained by fitting the following equation
(§7) Wherein, X and Y are known values, and IC50, Hillslope, Top and Bottom are the parameters obtained by fitting with software. Y is the inhibition percentage (calculated from the equation), X is the concentration of the compound; IC50 is the concentration of the compound when the 50% inhibition is reached. The smaller the IC50 value is, the stronger the inhibitory ability of the compound is. Vice versa, the higher the IC50 value is, the weaker the ability the inhibitory ability of the compound is; Hillslope represents the slope of the fitted curve, generally around 1*; Bottom represents the minimum value of the curve obtained by data fitting, which is generally 0%±20%; Top represents the maximum value of the curve obtained by data fitting, which is generally 100%±20%. The experimental data were fitted by calculating and analyzing with Dotmatics data analysis software.
(In general: Time-resolved FRET reads energy transfer from a long-lived donor to a nearby acceptor.)

The target in assay [2] is T2, EGFR-L858R/C797S (H1975-clone #8 cells) (Homo sapiens, UniProt P00533, C797S/L858R).
T2 construct: expressed in transfected cells; host or cells: H1975 (lentiviral transduction, endogenous EGFR knocked out, single clone #8)
Put plainly: EGFR degradation in H1975-clone#8 (L858R/C797S) cells (HTRF assay). The format is cell-based. The note with it: 16 h treatment; for DC50: IC50(DC50) of EGFR degradation; for Dmax: maximum percentage of inhibition (degradation). Here is the method: H1975-clone #8 (L858R/C797S): EGFR-L858R/C797S were stably expressed in H1975 cell lines by lentivirus-mediated over-expression, respectively. The EGFR over-expressed cells then underwent knockout, in which the EGFR targeting sgRNA was designed to only target the endogenous EGFR copies and preserve the exogenous EGFR copies. Followed by the knockout, the edited H1975 cells were seeded in 96 well plates at the concentration of […], cultured for about 2 weeks to allow single clones formation. The formed clones were screened by DNA sequencing and whole exon sequencing analysis for the desired edition. H1975-clone #8 were finally confirmed as homozygous L858R/C797S EGFR clones.
as §1, §2, §3, §4, §5, §6, §7

T2 sequence (P00533 25-1210 C797S/L858R): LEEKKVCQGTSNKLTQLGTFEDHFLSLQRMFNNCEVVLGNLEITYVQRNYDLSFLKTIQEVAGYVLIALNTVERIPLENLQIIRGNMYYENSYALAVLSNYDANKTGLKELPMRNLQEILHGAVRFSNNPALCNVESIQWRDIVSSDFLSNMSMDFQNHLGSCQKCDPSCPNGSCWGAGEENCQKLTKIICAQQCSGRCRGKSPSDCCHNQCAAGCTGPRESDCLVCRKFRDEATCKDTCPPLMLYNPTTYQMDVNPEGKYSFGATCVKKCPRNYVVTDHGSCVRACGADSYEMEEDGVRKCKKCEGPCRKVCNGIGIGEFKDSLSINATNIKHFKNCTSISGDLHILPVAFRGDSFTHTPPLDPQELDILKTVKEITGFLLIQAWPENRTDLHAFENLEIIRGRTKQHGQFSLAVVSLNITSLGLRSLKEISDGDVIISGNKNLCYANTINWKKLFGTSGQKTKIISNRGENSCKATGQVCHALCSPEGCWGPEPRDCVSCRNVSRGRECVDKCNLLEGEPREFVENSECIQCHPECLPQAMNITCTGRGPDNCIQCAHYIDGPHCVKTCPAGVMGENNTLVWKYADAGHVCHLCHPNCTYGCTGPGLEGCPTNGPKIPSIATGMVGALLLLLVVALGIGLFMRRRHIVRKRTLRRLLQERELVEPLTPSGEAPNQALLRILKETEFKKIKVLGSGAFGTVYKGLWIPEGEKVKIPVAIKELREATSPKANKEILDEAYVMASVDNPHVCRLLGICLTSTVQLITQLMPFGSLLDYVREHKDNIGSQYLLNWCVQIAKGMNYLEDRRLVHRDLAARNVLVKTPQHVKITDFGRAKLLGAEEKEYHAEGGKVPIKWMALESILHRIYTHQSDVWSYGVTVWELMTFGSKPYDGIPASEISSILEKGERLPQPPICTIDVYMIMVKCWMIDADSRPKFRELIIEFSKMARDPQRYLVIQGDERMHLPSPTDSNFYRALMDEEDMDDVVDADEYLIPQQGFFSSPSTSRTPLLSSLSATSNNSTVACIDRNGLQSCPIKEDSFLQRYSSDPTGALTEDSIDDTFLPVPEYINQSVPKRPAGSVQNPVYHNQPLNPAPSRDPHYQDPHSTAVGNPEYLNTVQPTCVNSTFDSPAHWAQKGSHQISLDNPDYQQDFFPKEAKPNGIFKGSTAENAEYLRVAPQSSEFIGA
T1 sequence (P00533 25-1210 L858R): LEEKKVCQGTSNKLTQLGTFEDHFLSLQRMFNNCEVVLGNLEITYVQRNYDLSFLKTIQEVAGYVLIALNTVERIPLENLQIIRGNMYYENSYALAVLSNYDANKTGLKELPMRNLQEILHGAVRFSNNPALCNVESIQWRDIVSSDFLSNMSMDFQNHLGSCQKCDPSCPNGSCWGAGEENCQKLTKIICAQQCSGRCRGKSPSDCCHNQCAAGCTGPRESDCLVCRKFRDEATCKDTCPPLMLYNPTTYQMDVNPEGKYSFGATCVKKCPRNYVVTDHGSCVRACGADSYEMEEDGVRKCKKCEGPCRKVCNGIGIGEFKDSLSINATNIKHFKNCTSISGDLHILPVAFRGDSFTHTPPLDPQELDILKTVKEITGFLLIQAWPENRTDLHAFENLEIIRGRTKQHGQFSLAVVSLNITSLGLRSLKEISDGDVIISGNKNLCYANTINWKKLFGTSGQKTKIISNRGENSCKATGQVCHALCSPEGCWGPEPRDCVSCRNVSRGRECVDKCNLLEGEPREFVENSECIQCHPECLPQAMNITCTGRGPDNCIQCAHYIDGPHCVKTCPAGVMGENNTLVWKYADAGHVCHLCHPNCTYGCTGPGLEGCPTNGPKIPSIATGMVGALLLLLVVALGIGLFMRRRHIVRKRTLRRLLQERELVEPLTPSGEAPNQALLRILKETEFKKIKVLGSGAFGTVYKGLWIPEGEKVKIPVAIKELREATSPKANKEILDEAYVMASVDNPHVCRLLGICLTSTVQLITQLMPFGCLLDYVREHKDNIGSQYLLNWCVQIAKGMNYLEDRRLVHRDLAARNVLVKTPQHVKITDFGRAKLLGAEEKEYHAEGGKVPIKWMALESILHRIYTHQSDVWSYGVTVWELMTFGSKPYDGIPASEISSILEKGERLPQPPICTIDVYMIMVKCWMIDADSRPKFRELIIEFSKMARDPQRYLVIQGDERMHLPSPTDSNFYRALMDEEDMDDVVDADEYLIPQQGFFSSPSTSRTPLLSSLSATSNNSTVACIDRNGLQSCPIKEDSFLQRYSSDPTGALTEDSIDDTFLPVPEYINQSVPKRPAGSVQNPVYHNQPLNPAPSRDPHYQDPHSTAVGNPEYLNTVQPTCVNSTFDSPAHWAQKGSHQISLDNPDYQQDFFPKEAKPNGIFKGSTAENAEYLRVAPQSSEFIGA

In assay [1], `Cc1cc2cc(n1)-c1cnn(C)c1OCC[C@]1(C)C[C@H]1CN1/C(=N/C2=O)Nc2ccc(N3CCN([C@@H]4CCN(c5cccc6c5C(C)(C)C(=O)N6C5CCC(=O)NC5=O)C[C@@H]4F)CC3)cc21` (stereo partly drawn) [Example 57, 3-(4-((3S,4R)-3-fluoro-4-(4-((7^1R,7^2S,E)-1^1,2^6,7^2-trimethyl-3-oxo-5^2,5^3-dihydro-1^1H,5^1H-10-oxa-4-aza-5 (2,1)-benzo[d]imidazola-2 (2,4)-pyridina-1 (4,5)-pyrazola-7 (1,2)-cyclopropanacyclodecaphane-5^6-yl)piperazin-1-yl)piperidin-1-yl)-3,3-dimethyl-2-oxoindolin-1-yl)piperidine-2,6-dione] showed a 50% degradation concentration (DC50) of 3.2 nM and a Dmax of 91.3%. Besides, in assay [2], the 50% degradation concentration (DC50) amounted to 4.21 nM and the Dmax came out at 61.7%.
Regarding `Cc1cc2cc(n1)-c1cnn(C)c1OCC[C@H]1C[C@@H]1CN1/C(=N/C2=O)Nc2ccc(N3CCN(C4CCN(c5c(C)cc(C6CCC(=O)NC6=O)nc5C)CC4)CC3)cc21` (some centres unmarked) [Example 15, 3-(5-(4-(4-((7^1S,7^2R,E)-1^1,2^6-dimethyl-3-oxo-5^2,5^3-dihydro-1^1H,5^1H-10-oxa-4-aza-5 (2,1)-benzo[d]imidazola-2 (2,4)-pyridina-1 (4,5)-pyrazola-7 (1,2)-cyclopropanacyclodecaphane-5^6-yl)piperazin-1-yl)piperidin-1-yl)-4,6-dimethylpyridin-2-yl)piperidine-2,6-dione], in assay [1], half-maximal degradation (DC50) was put at 4.48 nM and the maximal degradation (Dmax) came to 82.5%. In assay [2], this compound returned a DC50 of 4.96 nM and a Dmax of 46.1%.
For `Cc1cc2cc(n1)-c1cnn(C)c1OCC[C@]1(C)C[C@H]1CN1/C(=N/C2=O)Nc2ccc(N3CCN([C@@H]4CCN(c5cnc(C6CCC(=O)NC6=O)cc5C)C[C@@H]4F)CC3)cc21` (stereo partly drawn) [Example 59, 3-(5-((3S,4R)-3-fluoro-4-(4-((7^1R,7^2S,E)-1^1,2^6,7^2-trimethyl-3-oxo-5^2,5^3-dihydro-1^1H,5^1H-10-oxa-4-aza-5 (2,1)-benzo[d]imidazola-2 (2,4)-pyridina-1 (4,5)-pyrazola-7 (1,2)-cyclopropanacyclodecaphane-5^6-yl)piperazin-1-yl)piperidin-1-yl)-4-methylpyridin-2-yl)piperidine-2,6-dione], the values for the DC50 in assay [1] and in assay [2] were 3.54 nM and 0.635 nM, respectively. Also, the greatest degradation seen (Dmax) is 95.5% in assay [1] and 72.7% in assay [2].
In assay [1], `Cc1cc2cc(n1)-c1cnn(C)c1OCC[C@H]1C[C@@H]1CN1/C(=N/C2=O)Nc2ccc(N3CCN(C4CN(C5CCN(c6ccc(C7CCC(=O)NC7=O)nc6C)CC5)C4)C[C@H]3C)cc21` (stereo partly drawn) [Example 37, 3-(5-(4-(3-((R)-4-((7^1S,7^2R,E)-1^1,2^6-dimethyl-3-oxo-5^2,5^3-dihydro-1^1H,5^1H-10-oxa-4-aza-5 (2,1)-benzo[d]imidazola-2 (2,4)-pyridina-1 (4,5)-pyrazola-7 (1,2)-cyclopropanacyclodecaphane-5^6-yl)-3-methylpiperazin-1-yl)azetidin-1-yl)piperidin-1-yl)-6-methylpyridin-2-yl)piperidine-2,6-dione] yielded a DC50 of 7.92 nM and a Dmax of 64.5%. In assay [2], this compound displayed a half-maximal degradation concentration (DC50) of 8.34 nM and a Dmax of 55.9%.
In the case of `Cc1cc2cc(n1)-c1cnn(C)c1OCC[C@H]1C[C@@H]1CN1/C(=N/C2=O)Nc2ccc(N3CCN(C4CN(C5CCN(c6cc(F)c([C@H]7CCC(=O)NC7=O)c(F)c6)CC5)C4)CC3)cc21` [Example 10, (R)-3-(4-(4-(3-(4-((7^1S,7^2R,E)-1^1,2^6-dimethyl-3-oxo-5^2,5^3-dihydro-1^1H,5^1H-10-oxa-4-aza-5 (2,1)-benzo[d]imidazola-2 (2,4)-pyridina-1 (4,5)-pyrazola-7 (1,2)-cyclopropanacyclodecaphane-5^6-yl)piperazin-1-yl)azetidin-1-yl)piperidin-1-yl)-2,6-difluorophenyl)piperidine-2,6-dione], the DC50 is 6.97 nM in assay [1] and more than 10000 nM in assay [2]. Also, the values for the maximal degradation (Dmax) in assay [1] and in assay [2] were 91.3% and 31.2%, respectively.
